Assay: cn = amount concentration of the nth substance listed, in mol/dm3

CCCCCCCCCCCCCCCCn1cc[n+](C)c1.[Br-] [1-hexadecyl-3-methylimidazolium bromide] + O
surface tension liquid-gas [mN/m]
Conditions	278.15 K	288.15 K	298.15 K	308.15 K	318.15 K	328.15 K
c1 = 5e-06	69.16	66.26	63.93	61.53	58.5	55.05
c1 = 2e-05	63.91	61.84	60	58.48	54.53	51.85
c1 = 0.0001	56.17	52.62	51.14	49.46	47.36	45.42
c1 = 0.0002	50.9	48.63	46.77	45.39	42.7	42.13
c1 = 0.0003	46.66	43.95	43.38	41.17	39.84	39.44
c1 = 0.0004	42.78	41.32	39.38	38.02	37.93	38
c1 = 0.0005	39.25	37.45	37.26	36.21	36.75	37.07
c1 = 0.0008	38.25	37.54	37.37	36.14	36.11	36.2
c1 = 0.0011	38.38	37.4	37.09	36.28	36.18	36.25
c1 = 0.002	38.11	37.87	37.19	36.97	36.12	36.15
c1 = 0.004	37.61	37.33	37.21	36.37	36.04	35.98
